Source: patent US7521451B2, “Isoindoline derivative” (Maruishi Pharmaceutical Co., Ltd., priority 2002, dated 2009)
Where a name gives a salt, the structure may show the parent alone.

Tests used:
mice [1] = details: comparison anesthetics, disclosed in Japanese Patent Application Laid Open No. 50-154410, cited from earlier work; for T. I.(mouse): LD50/HD50
mice [2] = details: comparison anesthetics, disclosed in Japanese Patent Application Laid Open No. 50-154410; cited from earlier work

Question: With `CCOC(=O)CC1c2cc(C)c(C)cc2C(=S)N1c1cccnc1` (centres unmarked) as the compound, how does the melting point read?
Answer: 158 to 158.5 °C

Question: Which melting point does the source give for `Cc1cc2c(cc1C)C(OCC(=O)N1CCN(C)CC1)N(c1cccc(F)c1)C2=O` (centres unmarked) (as salt: hydrochloride) here?
Answer: 138 to 144.5 °C

Question: For `CCCOC(=O)CC1c2cc(C)c(C)cc2C(=O)N1c1cccnc1` (centres unmarked) (as salt: hydrochloride), which melting point is on record?
Answer: 201.5 to 208.5 °C

Question: Which “T. I.(mouse)” value (mice [1]) does the source give for `CCCC(C)C1(CC)C(=O)NC(=S)NC1=O` (centres unmarked) [Thiopental Sodium, thiopental sodium] here?
Answer: 4.26

Question: What about the LD50 (mice [1]) of the same compound?
Answer: 100 mg/kg

Question: And the HD50 (mice [2])?
Answer: 23.5 mg/kg

Question: With `CC(C)c1cccc(C(C)C)c1O` [Propofol, 2,6-diisopropylphenol] as the compound, how does the “T. I.(mouse)” value (mice [1]) read?
Answer: 4.14

Question: What about the LD50 (mice [1]) of the same compound?
Answer: 56 mg/kg

Question: What about the HD50 (mice [2]) of the same compound?
Answer: 13.5 mg/kg

Question: Which melting point does the source give for `Cc1cc2c(cc1C)C(C(=O)O)N(c1cccc(F)c1)C2=O` (centres unmarked) (as salt: hydrochloride) here?
Answer: 152 to 157.5 °C

Question: Which melting point does the source give for `Cc1cc2c(cc1C)C(OCC(=O)O)N(c1cccc(F)c1)C2=O` (centres unmarked) (as salt: hydrochloride) here?
Answer: 145 to 146 °C
